# Measurements taken from PMC5988656, “Phase I studies of AZD1208, a proviral integration Moloney virus kinase inhibitor in solid and haematological cancers” (British Journal of Cancer, 2018).
# Legend:
# [1] = test system: AML blasts; assay: RPPA protein profiling in AML blasts during therapy; assay type: in vivo, human; conditions: samples from six patients
# Method: In the AML study, a protein profiling analysis was carried out on primary blasts obtained from peripheral blood of patients (n = 6) before and during therapy with AZD1208. Due to time-sensitive aspects of the analysis, only patients from the MD Anderson Cancer Center (MDACC, Houston, TX, USA) were eligible. Whole blood was collected in heparinised tubes. Leukaemia cells were then isolated using Ficoll–Hypaque (specific gravity, 1.086; Life Technologies, Grand Island, NY, USA) density gradient separation, as previously described.[15] Cell number and mean cell volume were determined using a Coulter Channelyzer (Coulter Electronics, Hialeah, FL, USA).
# AML blasts isolated from patients during therapy with AZD1208 were harvested and submitted for reverse phase protein array (RPPA) analysis to evaluate protein level changes across a set of 171 antibodies,[16] graphed using GraphPad Prism software (GraphPad Software, Inc., San Diego, CA, USA).
# [2] = Solid tumour dose-escalation study: pharmacokinetics (plasma, urine); assay type: in vivo, human
# Method: The schedules for collection of blood and urine samples for PK analyses in each cohort in both studies are described in Supplementary Table 1. When necessary for clinical response assessment in the AML study, a bone marrow sample for PK analysis was collected at Cycle 1, Day 28.
# The concentration of AZD1208 in plasma and urine was determined by Covance, on behalf of Clinical Bioanalysis Alliance at AstraZeneca R&D, using a bioanalytical method. A volume of 0.05 ml of K2EDTA human plasma sample was extracted by liquid–liquid extraction using 0.7 ml of methyl tert-butyl ether. Approximately 100 µl of the supernatant was transferred, evaporated to dryness and reconstituted with 350 µl of 1:1 methanol:water, and a 5 µl injection was made to the high-performance liquid chromatography (HPLC) column. HPLC separations were performed on a Phenomenex LUNA C18 (50 × 2 mm, 5 µm) column using a mobile phase of 0.1% formic acid in water (A) and 0.1% formic acid in acetonitrile (B) at a flow rate of 0.6 ml/min and a column temperature of 40 °C. AZD1208-D5 was used as the internal standard. Detection was performed in a Sciex API4000 mass spectrometer, in a positive electrospray ionisation mode, using multiple reaction monitoring detection (AZD1208: 380.0–>248.1; AZD1208-D5: 385.0–>253.1).
smiles,measurement,setting,value
N[C@@H]1CCCN(c2c(/C=C3\SC(=O)NC3=O)cccc2-c2ccccc2)C1 [AZD1208],Patients with reductions in 4E-BP1 S65 (RPPA),[1],three
same,Patients with reductions in BAD S112 (RPPA),[1],four
same,"Plasma concentration of AZD1208, Gmean","[2]; Cycle 0, Day 1, 1 h post-dose, 120 mg",n=3 156.2 ng ml
same,"Plasma concentration of AZD1208, Gmean","[2]; Cycle 0, Day 1, 1 h post-dose, 240 mg",n=7 668.4 ng ml
same,"Plasma concentration of AZD1208, Gmean","[2]; Cycle 0, Day 1, 1 h post-dose, 360 mg",n=5 1424 ng ml
same,"Plasma concentration of AZD1208, Gmean","[2]; Cycle 0, Day 1, 1 h post-dose, 540 mg",n=7 1053 ng ml
same,"Plasma concentration of AZD1208, Gmean","[2]; Cycle 0, Day 1, 1 h post-dose, 700 mg",n=6 691.7 ng ml
same,"Plasma concentration of AZD1208, Gmean","[2]; Cycle 0, Day 1, 1 h post-dose, 800 mg",n=6 925.6 ng ml
same,"Plasma concentration of AZD1208, Gmean","[2]; Cycle 0, Day 1, 1.5 h post-dose, 120 mg",n=3 696.5 ng ml
same,"Plasma concentration of AZD1208, Gmean","[2]; Cycle 0, Day 1, 1.5 h post-dose, 240 mg",n=7 1317 ng ml
same,"Plasma concentration of AZD1208, Gmean","[2]; Cycle 0, Day 1, 1.5 h post-dose, 360 mg",n=5 2509 ng ml
same,"Plasma concentration of AZD1208, Gmean","[2]; Cycle 0, Day 1, 1.5 h post-dose, 540 mg",n=7 2747 ng ml
same,"Plasma concentration of AZD1208, Gmean","[2]; Cycle 0, Day 1, 2 h post-dose, 120 mg",n=3 1064 ng ml
same,"Plasma concentration of AZD1208, Gmean","[2]; Cycle 0, Day 1, 2 h post-dose, 240 mg",n=7 1906 ng ml
same,"Plasma concentration of AZD1208, Gmean","[2]; Cycle 0, Day 1, 2 h post-dose, 360 mg",n=6 3412 ng ml
same,"Plasma concentration of AZD1208, Gmean","[2]; Cycle 0, Day 1, 2 h post-dose, 540 mg",n=7 4049 ng ml
same,"Plasma concentration of AZD1208, Gmean","[2]; Cycle 0, Day 1, 2 h post-dose, 700 mg",n=6 3514 ng ml
same,"Plasma concentration of AZD1208, Gmean","[2]; Cycle 0, Day 1, 2 h post-dose, 800 mg",n=6 2929 ng ml
same,"Plasma concentration of AZD1208, Gmean","[2]; Cycle 0, Day 1, 4 h post-dose, 120 mg",n=3 720.6 ng ml
same,"Plasma concentration of AZD1208, Gmean","[2]; Cycle 0, Day 1, 4 h post-dose, 240 mg",n=6 1531 ng ml
same,"Plasma concentration of AZD1208, Gmean","[2]; Cycle 0, Day 1, 4 h post-dose, 360 mg",n=6 3157 ng ml
same,"Plasma concentration of AZD1208, Gmean","[2]; Cycle 0, Day 1, 4 h post-dose, 540 mg",n=7 3160 ng ml
same,"Plasma concentration of AZD1208, Gmean","[2]; Cycle 0, Day 1, 4 h post-dose, 700 mg",n=6 4581 ng ml
same,"Plasma concentration of AZD1208, Gmean","[2]; Cycle 0, Day 1, 4 h post-dose, 800 mg",n=6 3844 ng ml
same,"Plasma concentration of AZD1208, Gmean","[2]; Cycle 0, Day 1, 6 h post-dose, 120 mg",n=3 681 ng ml
same,"Plasma concentration of AZD1208, Gmean","[2]; Cycle 0, Day 1, 6 h post-dose, 240 mg",n=7 1408 ng ml
same,"Plasma concentration of AZD1208, Gmean","[2]; Cycle 0, Day 1, 6 h post-dose, 360 mg",n=6 2501 ng ml
same,"Plasma concentration of AZD1208, Gmean","[2]; Cycle 0, Day 1, 6 h post-dose, 540 mg",n=7 3190 ng ml
same,"Plasma concentration of AZD1208, Gmean","[2]; Cycle 0, Day 1, 6 h post-dose, 700 mg",n=6 5091 ng ml
same,"Plasma concentration of AZD1208, Gmean","[2]; Cycle 0, Day 1, 6 h post-dose, 800 mg",n=6 2677 ng ml
same,"Plasma concentration of AZD1208, Gmean","[2]; Cycle 0, Day 1, 8 h post-dose, 120 mg",n=3 597.8 ng ml
same,"Plasma concentration of AZD1208, Gmean","[2]; Cycle 0, Day 1, 8 h post-dose, 240 mg",n=7 1456 ng ml
same,"Plasma concentration of AZD1208, Gmean","[2]; Cycle 0, Day 1, 8 h post-dose, 360 mg",n=6 2196 ng ml
same,"Plasma concentration of AZD1208, Gmean","[2]; Cycle 0, Day 1, 8 h post-dose, 540 mg",n=7 2957 ng ml
same,"Plasma concentration of AZD1208, Gmean","[2]; Cycle 0, Day 1, 8 h post-dose, 700 mg",n=6 4256 ng ml
same,"Plasma concentration of AZD1208, Gmean","[2]; Cycle 0, Day 1, 8 h post-dose, 800 mg",n=6 3463 ng ml
same,"Plasma concentration of AZD1208, Gmean","[2]; Cycle 0, Day 1, 24 h post-dose, 120 mg",n=3 459.4 ng ml
same,"Plasma concentration of AZD1208, Gmean","[2]; Cycle 0, Day 1, 24 h post-dose, 240 mg",n=7 1157 ng ml
same,"Plasma concentration of AZD1208, Gmean","[2]; Cycle 0, Day 1, 24 h post-dose, 360 mg",n=6 1649 ng ml
same,"Plasma concentration of AZD1208, Gmean","[2]; Cycle 0, Day 1, 24 h post-dose, 540 mg",n=7 2111 ng ml
same,"Plasma concentration of AZD1208, Gmean","[2]; Cycle 0, Day 1, 24 h post-dose, 700 mg",n=6 2957 ng ml
same,"Plasma concentration of AZD1208, Gmean","[2]; Cycle 0, Day 1, 24 h post-dose, 800 mg",n=6 2466 ng ml
same,"Plasma concentration of AZD1208, Gmean","[2]; Cycle 0, Day 1, 48 h post-dose, 120 mg",n=3 308.4 ng ml
same,"Plasma concentration of AZD1208, Gmean","[2]; Cycle 0, Day 1, 48 h post-dose, 240 mg",n=7 773.2 ng ml
same,"Plasma concentration of AZD1208, Gmean","[2]; Cycle 0, Day 1, 48 h post-dose, 360 mg",n=6 1361 ng ml
same,"Plasma concentration of AZD1208, Gmean","[2]; Cycle 0, Day 1, 48 h post-dose, 540 mg",n=7 1168 ng ml
same,"Plasma concentration of AZD1208, Gmean","[2]; Cycle 0, Day 1, 48 h post-dose, 700 mg",n=6 1717 ng ml
same,"Plasma concentration of AZD1208, Gmean","[2]; Cycle 0, Day 1, 48 h post-dose, 800 mg",n=6 1377 ng ml
same,"Plasma concentration of AZD1208, Gmean","[2]; Cycle 0, Day 1, 72 h post-dose, 120 mg",n=3 221.4 ng ml
same,"Plasma concentration of AZD1208, Gmean","[2]; Cycle 0, Day 1, 72 h post-dose, 240 mg",n=7 501.1 ng ml
same,"Plasma concentration of AZD1208, Gmean","[2]; Cycle 0, Day 1, 72 h post-dose, 360 mg",n=6 912.2 ng ml
same,"Plasma concentration of AZD1208, Gmean","[2]; Cycle 0, Day 1, 72 h post-dose, 540 mg",n=7 710.8 ng ml
same,"Plasma concentration of AZD1208, Gmean","[2]; Cycle 0, Day 1, 72 h post-dose, 700 mg",n=6 1141 ng ml
same,"Plasma concentration of AZD1208, Gmean","[2]; Cycle 0, Day 1, 72 h post-dose, 800 mg",n=6 798.7 ng ml
same,"Plasma concentration of AZD1208, Gmean","[2]; Cycle 1, Day 15, 0.25 h post-dose, 120 mg",n=3 963.7 ng ml
same,"Plasma concentration of AZD1208, Gmean","[2]; Cycle 1, Day 15, 0.25 h post-dose, 240 mg",n=6 606.8 ng ml
